According to publication PMC4200786, “Synthesis and Characterization of New Bivalent Agents as Melatonin- and Histamine H3-Ligands” (International Journal of Molecular Sciences, 2014):

How the values were obtained:
[1] = target: T1, human histamine H3 receptor (Homo sapiens, UniProt Q9Y5N1); test: Human histamine H3 receptor binding assay, [3H](R)-α-methylhistamine displacement; details: SK-N-MC cell homogenates expressing hH3R; 0.5 nM [3H](R)-α-methylhistamine; mean ± SEM of three experiments
T1 construct: expressed in transfected cells; host or cells: SK-N-MC cells
T1 sequence (Q9Y5N1 whole entry): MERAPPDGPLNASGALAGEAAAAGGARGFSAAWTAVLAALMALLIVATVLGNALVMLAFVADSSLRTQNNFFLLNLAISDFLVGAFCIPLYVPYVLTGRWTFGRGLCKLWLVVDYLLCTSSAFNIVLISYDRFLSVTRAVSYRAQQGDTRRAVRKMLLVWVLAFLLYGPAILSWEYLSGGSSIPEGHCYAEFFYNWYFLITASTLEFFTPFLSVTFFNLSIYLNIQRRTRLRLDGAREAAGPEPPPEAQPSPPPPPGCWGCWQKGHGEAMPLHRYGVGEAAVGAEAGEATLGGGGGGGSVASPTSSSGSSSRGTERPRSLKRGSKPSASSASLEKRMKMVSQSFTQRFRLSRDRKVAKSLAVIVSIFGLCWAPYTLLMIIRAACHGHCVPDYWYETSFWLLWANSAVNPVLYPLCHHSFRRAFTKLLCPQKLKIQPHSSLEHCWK
Description: Homogenates of SK–N–MC cells expressing human histamine H3 receptors (hH3Rs) were used to determine affinity values of the new compounds in radioligand displacement studies according to Lovenberg et al.’s method. SK–N–MC cells in confluent culture plates were harvested using trypsin digestion and then centrifuged for 5 min at 1100 rpm. Pellets, either fresh or stored at −80 °C until the moment of use, were mechanically homogenized with Potter-Elvhejem in 20 mM Tris-HCl/0.5 mM EDTA. Supernatants from a 2000 rpm spin (10 min) were collected and re-centrifuged at 10,000 rpm for 30 min. Pellets were re-homogenized in 50 mM Tris-HCl/5 mM EDTA (pH 7.4). Membranes were incubated for 60 min at room temperature with 0.5 nM [^3H](R)-α-methylhistamine in 50 mM Tris-HCl/5 mM EDTA (pH 7.4) with or without competing ligands. Each concentration was tested in triplicate. Incubation was terminated by rapid filtration over Millipore (Darmstadt, Germany) AAWPO2500 filters followed by two washes with ice-cold buffer (50 mM Tris-HCl/5 mM EDTA). Filters retained radioactivity was determined by liquid scintillation counting (Ultima Gold XR Perkin Elmer (Waltham, MA, USA) scintillation liquid, Tri-Carb 2810 TR Perkin Elmer (Waltham, MA, USA) Liquid Scintillation Analyzer). […] Data are expressed as mean ± SEM of three independent experiments.

human MT1 receptor [2] = target: T2, human MT1 receptor (Homo sapiens, UniProt P48039); test: Human MT1 melatonin receptor binding assay, 2-[125I]iodomelatonin competition; details: cloned human MT1 in NIH3T3 cell membranes; 2-[125I]iodomelatonin 100 pM; N.A. = Not active up to 100 μM
T2 construct: expressed in transfected cells; host or cells: NIH3T3 fibroblast cells
T2 sequence (P48039 whole entry): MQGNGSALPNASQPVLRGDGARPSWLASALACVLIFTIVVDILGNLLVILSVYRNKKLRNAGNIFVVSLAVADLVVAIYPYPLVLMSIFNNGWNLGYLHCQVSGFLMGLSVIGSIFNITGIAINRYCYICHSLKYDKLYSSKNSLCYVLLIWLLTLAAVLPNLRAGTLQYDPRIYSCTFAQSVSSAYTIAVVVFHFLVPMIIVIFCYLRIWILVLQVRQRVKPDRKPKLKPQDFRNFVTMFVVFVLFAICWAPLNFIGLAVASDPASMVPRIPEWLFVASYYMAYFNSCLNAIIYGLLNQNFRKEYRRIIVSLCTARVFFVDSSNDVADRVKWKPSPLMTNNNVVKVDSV
Description: (§1) Binding affinities were determined using 2-[^125I]iodomelatonin as the labeled ligand in competition experiments with cloned human MT1 and MT2 receptors expressed in NIH3T3 […] fibroblast cells. The characterization of NIH3T3 MT1 and MT2 cells was already described in detail. Membranes were incubated for 90 min at 37 °C in binding buffer (50 mM Tris/HCl, pH 7.4). The final membrane concentration was 5–10 μg of protein per tube. The membrane protein level was determined in accordance with a previously reported method. 2-[^125I]Iodomelatonin (100 pM) and different concentrations of the tested compounds were incubated with the receptor preparation for 90 min at 37 °C. […] The pKi values were calculated from the IC50 values according to the Cheng–Prusoff equation [51]. The pKi values are the mean of at least three independent determinations performed in duplicate.

human MT2 receptor [3] = target: T3, human MT2 receptor (Homo sapiens, UniProt P49286); test: Human MT2 melatonin receptor binding assay, 2-[125I]iodomelatonin competition; details: cloned human MT2 in NIH3T3 cell membranes; 2-[125I]iodomelatonin 100 pM; N.A. = Not active up to 100 μM
T3 construct: expressed in transfected cells; host or cells: NIH3T3 fibroblast cells
T3 sequence (P49286 1-362): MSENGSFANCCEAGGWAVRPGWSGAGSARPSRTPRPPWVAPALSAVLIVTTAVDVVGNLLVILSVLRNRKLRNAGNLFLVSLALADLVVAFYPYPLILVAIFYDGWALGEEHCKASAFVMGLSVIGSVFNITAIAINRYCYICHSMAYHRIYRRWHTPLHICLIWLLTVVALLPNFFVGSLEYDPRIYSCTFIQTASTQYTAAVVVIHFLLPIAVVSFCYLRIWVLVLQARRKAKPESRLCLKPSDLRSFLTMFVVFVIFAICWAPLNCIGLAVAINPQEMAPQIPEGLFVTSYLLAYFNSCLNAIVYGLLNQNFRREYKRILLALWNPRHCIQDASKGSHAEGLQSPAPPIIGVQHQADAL
Description: as §1

human MT2 receptor [4] = target: T3, human MT2 receptor; test: [35S]GTPγS binding assay, human MT2 receptor; type: biochemical
Description: (§2) To determine the functional activity of compound 14d at MT1 and MT2 receptor subtypes, [^35S]GTPγS binding assays in NIH3T3 cells expressing human-cloned MT1 or MT2 receptors were performed. The amount of bound [^35S]GTPγS is proportional to the level of the analog-induced G protein activation and is related to the intrinsic activity of the compound under study. The detailed description and validation of this method were reported elsewhere. Membranes (15–25 μg of protein, final incubation volume 100 μL) were incubated at 30 °C for 30 min in the presence and absence 14d, in assay buffer consisting of [^35S]GTPγS (0.3–0.5 nM), GDP (50 μM), NaCl (100 mM), and MgCl2 (3 mM). Nonspecific binding was defined using GTPγS (10 μM). […] Basal stimulation is the amount of [^35S]GTPγS specifically bound in the absence of compounds and was taken as 100%. […] All of the measurements were performed in triplicate.

human MT1 receptor [5] = target: T2, human MT1 receptor; test: [35S]GTPγS binding assay, human MT1 receptor; type: biochemical
Description: as §2

Substance | hH3 pKi [1] | hMT1 pKi (human MT1 receptor [2]) | hMT2 pKi (human MT2 receptor [3]) | functional behaviour at MT2 receptor in the GTPγS assay (human MT2 receptor [4]; GTPγS assay) | hMT2 IAR (relative intrinsic activity) (human MT2 receptor [4]; [35S]GTPγS binding, NIH3T3 cells expressing human MT2, relative to melatonin) | functional behaviour at MT1 receptor in the GTPγS assay (human MT1 receptor [5]; GTPγS assay) | hMT1 IAR (relative intrinsic activity) (human MT1 receptor [5]; [35S]GTPγS binding, NIH3T3 cells expressing human MT1, relative to melatonin)
N-[2-({3-[3-(1H-Imidazol-4-yl)propoxy]phenyl}methylamino)ethyl]acetamide [Compound 14a] | 5.91 ± 0.01 |  |  |  |  |  | 
N-[2-({3-[5-(1H-Imidazol-4-yl)pentyloxy]phenyl}methylamino)ethyl]acetamide [Compound 14c] | 6.28 ± 0.03 | 6.09 ± 0.12 | 6.28 ± 0.10 |  |  |  | 
N-[2-({3-[6-(1H-Imidazol-4-yl)hexyloxy]phenyl}methylamino)ethyl]acetamide [Compound 14d] | 6.22 ± 0.09 | 6.79 ± 0.01 | 6.76 ± 0.06 | antagonist | −0.35 ± 0.19 | antagonist | −0.26 ± 0.09
